From publication PMC4937332 (2016)

Tested on: T8A7 (in solution, with anchor) (RNA, riboswitch) GGGGAACAAACAUUCAAAAUAAUAACACAAGAUAUGAGCGAAUGACAGCAAGGGGAGAGACCUGACCGAAAACCUCGGGAUACAGGCGCCGAAGGAGCAAACUGCGGAGUGAAUCUCUCAGGCAAAAGAACUCUUGCUCGACGCAACUCUGGAGAGUGUUUGUGCGGAUGCGCAAACCACCAAAGGGGACGUCUUUGCGUAUGCAAAGUAAACUUUCAGGUGCCAGGACAGAGAAGAAGGACGGGUCCAGCUGCUUCGGCAGCUGUUGAGUAGAGUGUGAGCUUCUCU
Assay: in-solution fluorescence titration, Spinach/DFHBI-1T turn-off
Conditions: 125 mM K+, 20 mM Mg2+; apparent; 50 mM Tris pH 8.31, 20 µM DFHBI-1T

KD: 71 ± 4 µM
Structure (SMILES): NCC(=O)O
